Reference: patent publication US11618746B2, “Inhibitors of APOL1 and methods of using same” (Vertex Pharmaceuticals Incorporated, priority 2018, dated 2023)

target: T1, G1 APOL1 (Homo sapiens, UniProt O14791, I384M/S342G); assay: Acute APOL1 Thallium Assay with inducible stable clones of HEK 293 cells; format: cell-based; details: HEK T-Rex tetracycline-inducible cells expressing G1 APOL1 (clone G1 DC3.25); inhibition of thallium flux rate
T1 construct: expressed in transfected cells
T1 sequence (O14791 28-398 S342G/I384M): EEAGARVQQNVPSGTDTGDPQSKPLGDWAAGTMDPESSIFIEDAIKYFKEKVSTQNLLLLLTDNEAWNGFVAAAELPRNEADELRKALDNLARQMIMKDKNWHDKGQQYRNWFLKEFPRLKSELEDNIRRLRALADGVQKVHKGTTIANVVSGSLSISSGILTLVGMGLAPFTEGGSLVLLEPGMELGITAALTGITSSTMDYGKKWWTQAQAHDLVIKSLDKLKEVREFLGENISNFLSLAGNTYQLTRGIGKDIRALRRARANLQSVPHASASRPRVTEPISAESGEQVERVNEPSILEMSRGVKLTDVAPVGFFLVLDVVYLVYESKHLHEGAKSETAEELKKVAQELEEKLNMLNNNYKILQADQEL
Text: Acute APOL1 Thallium Assay with Inducible Stable Clones of HEK 293 Cells
Apolipoprotein L1 (APOL1) proteins form potassium-permeable cation pores in the plasma membrane. APOL1 risk variants (G1 and G2) induce greater potassium flux than G0 in HEK293 cells. This assay exploits the permeability of thallium (T1+) through ligand-gated potassium channels. The dye produces a bright fluorescent signal upon binding to T1+ conducted through potassium channels. The intensity of the T1+ signal is proportional to the number of potassium channels in the open state. Therefore, it provides a functional indication of the potassium channel activities. During the initial dye-loading step, the T1+ indicator dye as an acetoxymethyl (AM) ester enters the cells through passive diffusion. Cytoplasm esterases cleave the AM ester and relieve its active thallium-sensitive form. The cells are then stimulated with T1+. The increase of fluorescence in the assay represents the influx of T1+ into the cell specifically through the potassium channel (i.e. through APOL1 pores), providing a functional measurement of potassium channel/pore activity. The Thallium assay is conducted with cells expressing G1 APOL1.
APOL1 Cell Line (HEK T-Rex Stable Inducible Cell Line) • HEK T-Rex System • Tetracycline (Tet) inducible mammalian expression system. • Stably express the Tet repressor to regulate transcription. • Expression under the full-length CMV promoter. • APOL1 stable inducible cell line Clone used: G1 DC3.25
Tissue Culture Media • Cell Culture Medium • DMEM +10% FBS +P/S +5 μg/mL blasticidin+1 μg/mL puromycin. • 500 mL DMEM +55 mL FBS +5 mL P/S +280 μL blasticidin S HCl (10 mg/mL)+56 μL puromycin (10 mg/mL). • Cell Assay Medium • DMEM with 2% FBS+pen strep.
Instruments and Equipment • Nuaire cell culture hood, Cat. No. 540-600 • 37° C./5% CO2 incubator link to robotic arm, Liconic: STX110 • Molecular Devices FLIPR^Tetra High throughput cellular screening system, Cat. No. FT0324, Molecular Devices • ThermoFisher MultiDrop 384, Cat. No. 5840300 • Biotek Microfill, Cat. No. ASF1000A-4145 • BioRad TC10 cell counter, Cat. No. 145-0010 Assay Procedures
Cells Scaled Up from Frozen Vials • APOL1 G1 3.25 (HEK293 T-Rex) frozen vials: 5 million cells per vial • Step 1, Day 1: Defrost frozen vial into T-225. • Step 2, Day 5: (when 85% confluent): Split one T-225 at 3×10^6 cells per flask. • Step 3, Day 8: Splits cells to set up for the assay plates as described below.
T-Rex APOL1 HEK cells are split twice per week to keep the confluence state below 85% of the culture flask surface area. Cells can be kept until passage 25. • Cell Culture Medium • DMEM high glucose +10% FBS, +P/S, +5 μg/mL blasticidin, +1 μg/mL puromycin. • 500 mL DMEM, +55 mL FBS, +5 mL P/S, +280 μL blasicidin 10 mg/mL, +56 μL Puromycin 10 mg/mL. • Assay Media • Opti-MEM reduced serum medium from Invitrogen.
Preparation of Cell Assay Plates • Culture medium is removed from the x cm^2 T-flask by aspiration. • The cell monolayer is rinsed with PBS 1× at room temperature. PBS is removed by aspiration. • Cells are trypsinized using Trypsin. • The flasks are incubated at room temperature for 2-3 minutes. • Complete DMEM medium is then added. Cell suspension is then transferred to a 50 mL Falcon polypropylene tube. • Cells are then counted using a Biorad TC10 cell counter and the required amount of cells are centrifuged at 1200 RPM for 5 minutes. Required amount is 1.3×10^6 cells/mL APOL1 T-Rex HEK cells. • The pellet is suspended in the assay medium. • Using the MultiDrop, add 20 μL to each well (corresponds to 26000 cells total per well) of a 384-well black, transparent, flat bottom Poly-D coated plate. • Tetracycline as prepared in the following section is added to the cells before plating to induce APOL1 expression. • Plates are left at room temperature for 20 to 30 minutes before incubation at 37° C. and 5% CO2. […]

Row | IC50 [nM] | SMILES
1 | 250 to 1000 | CC1C[C@H](NC(=O)CCc2c(-c3ccc(F)cc3)[nH]c3c(F)cc(F)cc23)C(=O)N1 (mixture of isomers) [Compound 6]
2 | 250 to 1000 | CC1(NC(=O)CCc2c(-c3ccc(F)cc3)[nH]c3c(F)cc(F)cc23)CCNC1=O (racemic) [Compound 14]
3 | < 250 | O=C(CCc1c(-c2ccc(F)cc2)[nH]c2c(F)cc(F)cc12)N[C@H]1CCNC1=O [Compound 3, 3-[5,7-difluoro-2-(4-fluorophenyl)-1H-indol-3-yl]-N-[(3S)-2-oxopyrrolidin-3-yl]propanamide]
4 | 250 to 1000 | O=C1C[C@H](NC(=O)CCc2c(-c3ccc(F)cc3)[nH]c3c(F)cc(F)cc23)C(=O)N1 [Compound 5]
5 | > 1000 | O=C(CCc1c(-c2ccc(F)cc2)[nH]c2c(F)cc(F)cc12)N[C@H]1C[C@@H](CO)NC1=O [Compound 7]
6 | > 1000 | O=C(CCc1c(-c2ccc(F)cc2)[nH]c2c(F)cc(F)cc12)N[C@H]1C[C@H](CO)NC1=O [Compound 8]
7 | 250 to 1000 | O=C(CCc1c(-c2ccc(F)cc2)[nH]c2c(F)cc(F)cc12)N[C@@H]1CCNC1=O [Compound 13]
8 | 250 to 1000 | O=C1C[C@@H](NC(=O)CCc2c(-c3ccc(F)cc3)[nH]c3c(F)cc(F)cc23)C(=O)N1 [Compound 16]
9 | < 250 | N#Cc1ccc(-c2[nH]c3c(F)cc(F)cc3c2CCC(=O)N[C@H]2CCNC2=O)cc1 [Compound 20, 3-[2-(4-cyanophenyl)-5,7-difluoro-1H-indol-3-yl]-N-[(3S)-2-oxopyrrolidin-3-yl]propanamide]
10 | < 250 | O=C(CCc1c(-c2ccc(OC(F)F)cc2)[nH]c2c(F)cc(F)cc12)N[C@H]1CCNC1=O [Compound 21]
11 | < 250 | O=C(CCc1c(-c2ccccc2)[nH]c2c(F)cc(F)cc12)N[C@@H]1C(=O)NC[C@H]1O [Compound 26]
12 | < 250 | O=C(CCc1c(-c2ccc(F)cc2)[nH]c2c(F)cc(Br)cc12)N[C@H]1CCNC1=O [Compound 27]
13 | > 1000 | N#Cc1cc(F)c2[nH]c(-c3ccc(F)cc3)c(CCC(=O)N[C@H]3CCNC3=O)c2c1 [Compound 28]
14 | < 250 | Cc1cc(F)c2[nH]c(-c3ccc(F)cc3)c(CCC(=O)N[C@@H]3C(=O)NC[C@H]3O)c2c1 [Compound 29]
15 | < 250 | O=C(CCc1c(-c2ccc(F)cc2)[nH]c2c(F)cc(Cl)cc12)N[C@@H]1C(=O)NC[C@H]1O [Compound 30]
16 | < 250 | O=C(CCc1c(-c2ccc(F)cc2)[nH]c2c(Cl)cc(F)cc12)N[C@@H]1C(=O)NC[C@H]1O [Compound 36]
17 | < 250 | Cc1cc(F)cc2c(CCC(=O)N[C@@H]3C(=O)NC[C@H]3O)c(-c3ccc(F)cc3)[nH]c12 [Compound 37]
18 | < 250 | COc1cc(F)cc2c(CCC(=O)N[C@@H]3C(=O)NC[C@H]3O)c(-c3ccc(F)cc3)[nH]c12 [Compound 40]
19 | < 250 | N#Cc1cc(F)cc2c(CCC(=O)N[C@@H]3C(=O)NC[C@H]3O)c(-c3ccc(F)cc3)[nH]c12 [Compound 42]
20 | < 250 | Cc1ccc2[nH]c(-c3ccc(Br)cc3)c(CCC(=O)N[C@H]3CCNC3=O)c2c1 [Compound 43, 3-[2-(4-bromophenyl)-5-methyl-1H-indol-3-yl]-N-[(3S)-2-oxopyrrolidin-3-yl]propanamide]
21 | < 250 | O=C(CCc1c(-c2ccccc2)[nH]c2ccc(Cl)cc12)N[C@@H]1C(=O)NC[C@H]1O [Compound 44, 3-(5-chloro-2-phenyl-1H-indol-3-yl)-N-[(3S,4R)-4-hydroxy-2-oxo-pyrrolidin-3-yl]propanamide]
22 | < 250 | O=C(CCc1c(-c2ccc(F)cc2)[nH]c2ccc(F)cc12)N[C@@H]1C(=O)NC[C@H]1O [Compound 46]
23 | < 250 | O=C(CCc1c(-c2ccc(F)cc2)[nH]c2ccc(F)cc12)N[C@H]1CCNC1=O [Compound 47]
24 | < 250 | O=C(CCc1c(-c2ccc(F)cc2)[nH]c2ccc(F)cc12)NC1CCNC1=O (stereo not shown) [Compound 48]
25 | 250 to 1000 | O=C(CCc1c(-c2ccc(F)cc2)[nH]c2ccc(F)cc12)N[C@@H]1CCNC1=O [Compound 49]
